Data reported in US11950596B2, “Methods of protecting seeds from oxidants and microorganisms” (The United States of America, as represented by the …, priority 2020, dated 2024).
Like-named read-outs stand apart in the source and are kept apart here. Marks after values point to notes of the source that are not given here.

What was measured:
[1] = tested on: A. tumefaciens or E. coli; test: Heat-sensitizing bioassay of OG, average MBC of bacteria; type: cell-based, Agrobacterium tumefaciens, Escherichia coli; details: 90 seconds
Method: (§1) As described in A. flavus 3357 test (see above), microfuge tubes were treated with mild heat (57.5° C.) or maintained at RT (22.0° C.) (90 seconds). After heat treatments, entire volume (200 μL) from each microfuge tube was spread onto fresh recovery LB agar (for bacteria) or PDA (for fungi), and plates were incubated at the optimum temperature for respective microorganisms (i.e., 35° C. for Aspergillus, 37° C. for E. coli, 28° C. for Penicillium/A. tumefaciens, respectively). The growth/survival of test microorganisms were monitored after 48 to 72 hrs of incubation.
(§2) Heat-sensitizing activity of OG against bacteria (A. tumefaciens, E. coli): Heat-sensitizing activity of OG was also investigated against bacterial cells (i.e., E. coli and plant-pathogenic A. tumefaciens). […] (Table 4; FIG. 2).

[2] = tested on: twelve fungi (Aspergillus and Penicillium); test: Heat-sensitizing bioassay of OG, average MFC of twelve fungi; type: cell-based; details: 90 seconds; for MFC: read-out: average MFC of OG from twelve fungi
Method: as §1
(§3) Heat-sensitizing activity of OG against other fungi: Heat-sensitizing activity of OG was then investigated in other fungi (five Aspergillus strains and seven Penicillium strains) including fungicide resistant strains (i.e., P. expansum FR2, FR3 resistant to the conventional fungicide fludioxonil) (see Table 1).
(RT) to 57.5° C. (mild heat).

P. italicum 983 = test: Heat-sensitizing bioassay of OG (MFC) in other fungi; type: cell-based, Penicillium italicum; details: 90 seconds
Method: as §1, §3

A. tumefaciens 4212 = test: Heat-sensitizing bioassay of OG (MBC) in bacteria; type: cell-based, Agrobacterium tumefaciens; details: 90 seconds, read-out: minimum bactericidal concentration (MBC) of OG
Method: as §1, §2

A. flavus 3357 = test: Heat-sensitizing antimicrobial bioassay (MFC) in A. flavus 3357; type: cell-based, Aspergillus flavus; details: for MFC: Aspergillus flavus, 3357, 0.025 h, read-out: minimum fungicidal concentration (MFC; >99.999% fungal death)
Method: Antimicrobial bioassay: The heat-sensitizing effect of twenty-eight compounds (phenolic derivatives, alkyl gallates, other food additives) (0.025, 0.050, 0.075, 0.100, 0.200, 0.300, 0.400, 0.500, 0.600 or 0.700 mM) and six drugs/fungicides (1, 2, 4, 8, 16, 32, 64 ppm) (Table 2) were examined using A. flavus 3357. Two hundred μL of fungal spores (1.5×10^5 to 2.1×10^5 CFU) dispersed in PBS was transferred into individual microfuge tube (1.5 mL vol.), where (1) “control” tube contained DMSO only, while (2) “treatment” tube contained test chemical/drug at respective concentration. The tubes were then treated with mild heat (57.5° C.) or maintained at room temperature (RT; 22.0° C.) for 90 seconds. After treatments, entire volume (200 μL) from each microfuge tube was spread onto fresh recovery PDA, and plates were incubated at respective temperatures. Fungal growth/survival was monitored after 48 hrs of incubation.
as §1
Determination of optimum temperature and time duration for screening heat sensitizers in A. flavus 3357: For the determination of the optimum temperature and time points for screening heat sensitizers, fungal (A. flavus 3357) survivability was tested by exposing fungal spores (1.5×10^5 to 2.1×10^5 CFU) to different temperatures (50, 55, 57.5, 60, 65° C.) and time points (0.5, 1.0, 1.5, 2.0, 2.5, 3.0, 3.5, 4.0, 4.5, 5.0 min).

A. brasiliensis 16404 = test: Heat-sensitizing bioassay of OG (MFC) in other fungi; type: cell-based, Aspergillus brasiliensis; details: 90 seconds
Method: as §1, §3

P. expansum FR2 = test: as above; type: cell-based; details: Penicillium expansum, fludioxonil resistant mutant
Method: as §1, §3

P. expansum FR3 = test: as above; type: cell-based; details: Penicillium expansum, fludioxonil resistant mutant
Method: as §1, §3

P. expansum W2 = test: as above; type: cell-based; details: Penicillium expansum, 90 seconds
Method: as §1, §3

P. expansum W1 = test: as above; type: cell-based; details: Penicillium expansum, 90 seconds
Method: as §1, §3

P. chrysogenum 824 = test: as above; type: cell-based, Penicillium chrysogenum; details: 90 seconds
Method: as §1, §3

A. parasiticus 2999 = test: as above; type: cell-based, Aspergillus parasiticus; details: 90 seconds
Method: as §1, §3

A. parasiticus 5862 = test: as above; type: cell-based, Aspergillus parasiticus; details: 90 seconds
Method: as §1, §3

A. flavus 4212 = test: as above; type: cell-based, Aspergillus flavus; details: 90 seconds
Method: as §1, §3

With `CCCCCCCCOC(=O)c1cc(O)c(O)c(O)c1` [Octyl gallate] the MBC ([1]; 22° C.) was 250 µM, the MBC ([1]; 57.5° C.) was 75 µM and the “average MBC of OG” value ([1]; 57.5° C., listed as OG) was 75* μM. For the same compound, the MFC ([2]; 22.0° C., listed as OG) was over 283.3 µM, the “average MFC of OG from twelve fungi” value ([2]; 57.5° C., listed as OG) was 175.8 (p < 0.005) μM and the MFC ([2]; Aspergillus, 22.0° C.) was over 283 µM. It also gave an MFC ([2]; Aspergillus, 57.5° C.) of 176 µM, an MFC (P. italicum 983; Penicillium italicum, 983, 22.0° C.) of 200 µM and an MFC (P. italicum 983; Penicillium italicum, 983, 57.5° C.) of 100 µM. For the same compound, the MBC (A. tumefaciens 4212; Agrobacterium tumefaciens, 4212, 22° C.) was 200 µM, the MBC (A. tumefaciens 4212; Agrobacterium tumefaciens, 4212, 57.5° C.) was 75 µM and the “minimum fungicidal concentration (MFC; >99.999% fungal death)” value (A. flavus 3357) was 180* μM. The MFC (A. flavus 3357; 22.0° C. (RT), 90 seconds, PBS) was 250 µM, the MFC (A. flavus 3357) was 180 µM and the MFC (A. brasiliensis 16404; Aspergillus brasiliensis, 16404, 22.0° C.) was over 300 µM. It also gave an MFC (A. brasiliensis 16404; Aspergillus brasiliensis, 16404, 57.5° C.) of 160 µM, an MFC (P. expansum FR2; FR2, read-out: MFC of OG, 22.0° C., 90 seconds) of over 300 µM and an MFC (P. expansum FR2; FR2, read-out: MFC of OG, 57.5° C., 90 seconds) of 190 µM. The MFC (P. expansum FR3; FR3, read-out: MFC of OG, 22.0° C., 90 seconds) was over 300 µM, the MFC (P. expansum FR3; FR3, read-out: MFC of OG, 57.5° C., 90 seconds) was 160 µM and the MFC (P. expansum W2; W2, 22.0° C.) was over 300 µM. For the same compound, the MFC (P. expansum W2; W2, 57.5° C.) was 170 µM, the MFC (P. expansum W1; W1, 22.0° C.) was over 300 µM and the MFC (P. expansum W1; W1, 57.5° C.) was 160 µM. It also gave an MFC (P. chrysogenum 824; Penicillium chrysogenum, 824, 22.0° C.) of 250 µM, an MFC (P. chrysogenum 824; Penicillium chrysogenum, 824, 57.5° C.) of 130 µM and an MFC (A. parasiticus 2999; Aspergillus parasiticus, 2999, 22.0° C.) of over 300 µM. It also gave an MFC (A. parasiticus 2999; Aspergillus parasiticus, 2999, 57.5° C.) of 200 µM, an MFC (A. parasiticus 5862; Aspergillus parasiticus, 5862, 22.0° C.) of over 300 µM and an MFC (A. parasiticus 5862; Aspergillus parasiticus, 5862, 57.5° C.) of 300 µM. For the same compound, the MFC (A. flavus 4212; Aspergillus flavus, 4212, 22.0° C.) was over 300 µM and the MFC (A. flavus 4212; Aspergillus flavus, 4212, 57.5° C.) was 180 µM.
